Measured values: ChEMBL document CHEMBL4706505, “F10, a new camptothecin derivative, was identified as a new orally-bioavailable, potent antitumor agent” (Eur J Med Chem, 2020)
Converted amounts (≈) assume the structure as drawn.

Experiments:
[1] = Toxicity in NPG mouse xenografted with human Raji cells assessed as body weight loss at 4 mg/kg, ig measured after 5 day; type: organism-based; settings: in vivo, po, 120 h
Raji [2] = test: Cytotoxicity against human Raji assessed as reduction in cell viability measured after 72 hrs by MTT assay; type: functional, cell-based
HCT-116 [3] = test: Induction of apoptosis in human HCT-116 cells assessed as early apoptotic cells level at 0.001 uM incubated for 24 hrs by Annexin V-FITC/PI staining based flow cytometry (reference value: 0.17%); type: functional
[4] = Toxicity in NPG mouse xenografted with human Raji cells assessed as body weight loss at 4 mg/kg, ig measured on the 1 day; type: organism-based; settings: in vivo, po, 24 h
HCT-116 [5] = test: Induction of apoptosis in human HCT-116 cells assessed as early apoptotic cells level at 1 uM incubated for 24 hrs by Annexin V-FITC/PI staining based flow cytometry (reference value: 0.17%); type: functional
[6] = Toxicity in nude BALB/c mouse xenografted with human HCT-116 cells assessed as reduction in body weight at 8 mg/kg, po dosed once the every 2 day for upto 24 days; type: organism-based; settings: in vivo, time <=24 day
HCT-116 [7] = test: Induction of apoptosis in human HCT-116 cells assessed as late apoptotic cells level at 0.03 uM incubated for 24 hrs by Annexin V-FITC/PI staining based flow cytometry (reference value: 0.07%); type: functional
[8] = Solubility of compound in phosphate buffer at pH 4.5 incubated for 24 hrs under shaking condition by HPLC analysis; type: physicochemical
[9] = Toxicity in Kunming mouse assessed as mortality at 250 mg/kg, po measured once every 30 mins upto 10 days; type: organism-based; settings: in vivo, 0.5 h
[10] = Toxicity in NPG mouse xenografted with human Raji cells assessed as body weight loss at 2 mg/kg, ip measured after 5 day; type: organism-based; settings: in vivo, 120 h
[11] = Toxicity in Kunming mouse assessed as mortality at 60 mg/kg, iv measured once every 30 mins upto 10 days; type: organism-based; settings: in vivo, 0.5 h
[12] = target: T1, DNA topoisomerase 1 (Homo sapiens) (UniProt P11387); test: Inhibition of human recombinant topoisomerase I using DNA pBR322 as substrate assessed as relaxed DNA at 1 uM incubated for 30 mins by gel electrophoresis analysis relative to control
T1 sequence (whole entry): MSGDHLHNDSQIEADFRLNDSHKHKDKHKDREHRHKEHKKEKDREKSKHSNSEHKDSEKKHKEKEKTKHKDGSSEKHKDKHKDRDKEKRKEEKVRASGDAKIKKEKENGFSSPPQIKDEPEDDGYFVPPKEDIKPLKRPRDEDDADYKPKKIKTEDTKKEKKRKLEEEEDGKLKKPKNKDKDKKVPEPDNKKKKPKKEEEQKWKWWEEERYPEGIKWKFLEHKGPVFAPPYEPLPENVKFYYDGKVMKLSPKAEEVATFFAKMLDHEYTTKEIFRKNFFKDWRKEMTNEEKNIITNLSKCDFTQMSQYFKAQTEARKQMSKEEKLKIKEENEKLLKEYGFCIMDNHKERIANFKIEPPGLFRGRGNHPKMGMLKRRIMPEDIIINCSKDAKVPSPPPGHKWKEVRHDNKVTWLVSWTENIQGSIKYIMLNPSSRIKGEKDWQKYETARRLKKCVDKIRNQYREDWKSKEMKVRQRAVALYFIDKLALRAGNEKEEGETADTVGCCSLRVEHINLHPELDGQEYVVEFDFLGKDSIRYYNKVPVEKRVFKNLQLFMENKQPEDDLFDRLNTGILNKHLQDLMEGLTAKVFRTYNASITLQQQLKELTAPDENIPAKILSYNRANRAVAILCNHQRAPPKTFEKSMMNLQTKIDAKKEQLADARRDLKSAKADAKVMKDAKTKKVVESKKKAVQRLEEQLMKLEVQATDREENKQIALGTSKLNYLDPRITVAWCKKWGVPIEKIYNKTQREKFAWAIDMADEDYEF

[13] = Tmax in nude BALB/c mouse serum at 8.0 mg/kg incubated up to 9 hrs, iv administered […] by LC-MS/MS analysis; type: ADME, organism-based
HCT-116 [14] = test: Induction of apoptosis in human HCT-116 cells assessed as early apoptotic cells level at 0.03 uM incubated for 24 hrs by Annexin V-FITC/PI staining based flow cytometry (reference value: 0.17%); type: functional
[15] = MRT (0 to infinity) in nude BALB/c mouse serum at 8.0 mg/kg incubated up to 9 hrs, iv administered […] by LC-MS/MS analysis; type: ADME, organism-based
Raji [16] = test: Antitumor activity against NPG mouse xenografted with human Raji cell assessed as decrease in tumor volume at 2 mg/kg, ip measured after 5 day; type: functional
HeLa = test: Cytotoxicity against human Hela assessed as reduction in cell viability measured after 72 hrs by MTT assay; type: functional, cell-based
HCT-116 [17] = test: Cytotoxicity against human HCT-116 assessed as reduction in cell viability measured after 72 hrs by MTT assay; type: functional, cell-based; settings: HCT-116, 72 h
[18] = target: T1, DNA topoisomerase 1 (Homo sapiens); test: Inhibition of human recombinant topoisomerase I using DNA pBR322 as substrate assessed as relaxed DNA at 100 uM incubated for 30 mins by gel electrophoresis analysis relative to control
[19] = Toxicity in NPG mouse xenografted with human Raji cells assessed as body weight loss at 2 mg/kg, ip measured on the day 1; type: organism-based; settings: in vivo
Raji [20] = test: Antitumor activity against NPG mouse xenografted with human Raji cell assessed as decrease in tumor volume at 8 mg/kg, ig measured on the 1 day; type: functional
Raji [21] = test: Antitumor activity against NPG mouse xenografted with human Raji cell assessed as tumor growth inhibition at 4 mg/kg, ip measured after 5 day; type: functional; settings: 120 h, read-out: TGI
[22] = target: T1, DNA topoisomerase 1 (Homo sapiens); test: Inhibition of human recombinant topoisomerase I using DNA pBR322 as substrate assessed as relaxed DNA at 10 uM incubated for 30 mins by gel electrophoresis analysis relative to control
COLO 205 = test: Cytotoxicity against human COLO 205 assessed as reduction in cell viability measured after 72 hrs by MTT assay; type: functional, cell-based; settings: COLO 205, 72 h
[23] = Tmax in nude BALB/c mouse serum at 8.0 mg/kg incubated up to 9 hrs, po administered via gavage by LC-MS/MS analysis; type: ADME, organism-based
Raji [24] = test: Antitumor activity against NPG mouse xenografted with human Raji cell assessed as tumor growth inhibition at 4 mg/kg, ig measured after 5 day; type: functional; settings: po, 120 h, read-out: TGI
[25] = Cmax in nude BALB/c mouse serum at 8.0 mg/kg incubated up to 9 hrs, po administered via gavage by LC-MS/MS analysis; type: ADME, organism-based; parameters: route oral, dose 8 mg/kg, time <=9
[26] = AUC (0 to infinity) in nude BALB/c mouse serum at 8.0 mg/kg incubated up to 9 hrs, po administered via gavage by LC-MS/MS analysis; type: ADME, organism-based; parameters: route oral, dose 8 mg/kg, time <=9; settings: in vivo
[27] = Toxicity in Kunming mouse assessed as mortality at 200 mg/kg ip measured once every 30 mins upto 10 days; type: organism-based; settings: in vivo, 0.5 h
LoVo = test: Cytotoxicity against human LoVo assessed as reduction in cell viability measured after 72 hrs by MTT assay; type: functional, cell-based

**Q.** With `CCc1c2c(nc3ccc(OCC(=O)N4CCCCC4)cc13)-c1cc3c(c(=O)n1C2)COC(=O)[C@]3(O)CC` as the compound, how does the Activity [1] read?
**A.** 25.8 g

**Q.** What about the IC50 (Raji [2]) of the same compound?
**A.** 2 nM

**Q.** What about the Activity (HCT-116 [3]) of the same compound?
**A.** 4.92%

**Q.** What about the Activity [4] of the same compound?
**A.** 25.4 g

**Q.** What about the Activity (HCT-116 [5]) of the same compound?
**A.** 16.95%

**Q.** And the Activity [6]?
**A.** Toxic

**Q.** And the Activity (HCT-116 [7])?
**A.** 10.73%

**Q.** And the solubility thermodynamic at 24 h [8]?
**A.** 9.86 µg/mL (≈ 19.1 µM)

**Q.** And the Activity [9]?
**A.** Non-Toxic

**Q.** And the Activity [10]?
**A.** 20.6 g

**Q.** And the Activity [11]?
**A.** Non-Toxic

**Q.** And the inhibition [12]?
**A.** 38.1%

**Q.** What about the Tmax [13] of the same compound?
**A.** 10.2 min

**Q.** And the Activity (HCT-116 [14])?
**A.** 7.55%

**Q.** What about the MRT inf [15] of the same compound?
**A.** 13.8 min

**Q.** What about the Activity (Raji [16]) of the same compound?
**A.** 936 mm3

**Q.** And the IC50 (HeLa)?
**A.** 125 nM

**Q.** And the IC50 (HCT-116 [17])?
**A.** 3 nM

**Q.** And the inhibition [18]?
**A.** 63.5%

**Q.** And the Activity [19]?
**A.** 23.2 g

**Q.** And the Activity (Raji [20])?
**A.** 956 mm3

**Q.** What about the inhibition in vivo at 4 mg/kg (Raji [21]) of the same compound?
**A.** 136%

**Q.** What about the inhibition [22] of the same compound?
**A.** 52.3%

**Q.** What about the IC50 (COLO 205) of the same compound?
**A.** 96 nM

**Q.** What about the Tmax [23] of the same compound?
**A.** 19.8 min

**Q.** What about the inhibition in vivo at 4 mg/kg (Raji [24]) of the same compound?
**A.** 33.8%

**Q.** And the Cmax [25]?
**A.** 332 ng/mL

**Q.** What about the AUC [26] of the same compound?
**A.** 168.07 h/ng/mL

**Q.** What about the Activity [27] of the same compound?
**A.** Toxic

**Q.** And the IC50 (LoVo)?
**A.** 81 nM
